Assay results taken from US9119846B2, “Method and composition for enhancing cognition in alzheimer's patients” (NEURIM PHARMACEUTICALS (1991) LTD., priority 2003, dated 2015).

Assays:
Type in all cases: in vivo, human
[1] = tested on: mixed age insomnia patients; assay: Leeds Sleep Evaluation Questionnaire sleep quality, responder rate; details: 1 mg per night, 3 weeks
Protocol: The effects of a controlled release formulation of melatonin on subjectively assessed sleep quality were studied in a mixed age insomnia patients population (aged 20-80 years). The subjects were treated for 1 week with placebo to establish baseline characteristics and then for 3 weeks with 1 mg per night of controlled release melatonin or placebo. On the last three days of the baseline and treatment periods patients were asked to assess the quality of their sleep the previous night using the Leeds Sleep Evaluation Questionnaire (Parrott, A. C. and I. Hindmarch (1980). “The Leeds sleep evaluation questionnaire in psychopharmacological investigations—a review.” Psychopharmacology (Berl) 71(2): 173-9) which comprises two 100 mm visual analog scales relating to sleep quality. The distance of the patient mark from the right hand side in mm was measured and the mean answer of the two questions was averaged across the 3 consecutive nights. A responder was defined as a patient showing improvement of 10 mm or more on the averaged value. […] There was no difference in responder rate to placebo between the smokers (46%, n=13) and non-smokers groups (44% n=53, p=0.89, chi-square test).

elderly volunteers = assay: Memory recall (Rivermead story test), crossover study; details: for Difference in recalls under melatonin and placebo / Mean number of recalled elements of the story: 2 hours after intake; for Mean number of recalled elements of the story: 2 mg controlled release
Protocol: The effect of melatonin (2 mg controlled release formulation) and placebo on memory recall (Rivermead story test) were assessed in 16 elderly volunteers (>55 years; aged 59 (SD 3.2) years). In a randomised, double-blind, crossover study the subjects were given a tablet of placebo in the evening to establish baseline and then a tablet of melatonin or placebo in a random order in the evening with one week with no treatment in between treatments. The Rivermead test was given to the patients at 2 and 12.5 hours after the administration of the tablet. […] Memory efficiency is increased with controlled release 2 mg melatonin for both recalls (immediate and delayed) in the subjects who were smoking or ceased smoking within the last 6 months prior to the study than non-smokers compared to baseline or crossover placebo.

[2] = tested on: elderly insomnia patients; assay: Psychomotor performance (total reaction time, mean reaction time); details: 2 mg per night, 3 weeks
Protocol: The effect of a controlled release formulation of melatonin on psychomotor performance (total reaction time, TRT, and Mean reaction time, MRT) in 40 elderly insomnia patients (aged 60.8 (SD 0.8) years) were studied. The subjects were treated for 2 weeks with placebo (baseline) and 3 weeks with 2 mg per night of controlled release melatonin. On the last two days of treatment psychomotor tests were taken by all patients to assess daytime vigilance.

[3] = tested on: elderly insomnia patients; assay: Subjectively assessed quality of sleep (140 mm visual analog scale), randomized double-blind crossover study; details: controlled release 2 mg, 4 weeks, higher = better sleep
Protocol: The effect of a controlled release formulation of melatonin on subjectively assessed sleep quality in 17 elderly insomnia patients (aged 66.9 (SD 5.4) years) were studied in a randomized, double-blind, crossover study. Basal excretion of the main melatonin metabolite 6-sulfatoxymentonin in urine over the nocturnal period (8 p.m.-8 a.m.) was measured and the subjects were treated for 1 week with placebo to establish baseline characteristics followed by a two-period crossover design (4 weeks on either melatonin controlled release 2 mg or placebo) separated by a washout period (1 week). On the last week of the baseline and treatment periods patients were asked to assess the quality of their sleep the previous night by ticking a 140 mm visual analog scale. The distance (in mm) of the patient mark from the left hand side of the scale was measured and a higher number indicated better sleep. The difference from placebo values in the patient evaluation of restful sleep was calculated for smoking and non-smoking patients. There were no significant differences in the amount of nocturnal 6-sulfatoxymentonin excreted by smokers and non-smokers in the study population (3.5+1.5 vs. 6.3+5 μg 6-sulfatoxymentonin, respectively). […] No difference was found in the response to placebo between the smokers and non-smokers.

SMILES: COc1ccc2[nH]cc(CCNC(C)=O)c2c1 [melatonin]
- rate of responders (improvement of 10 mm or more) ([1]; non-smokers, n=43): 40%
- rate of responders (improvement of 10 mm or more) ([1]; smokers, n=16): 62%
- memory tasks in the first hours of administration over the respective placebo values (elderly volunteers; 2 mg controlled release formulation, single administration): improvement of memory tasks
- Difference in recalls under melatonin and placebo (elderly volunteers; Non-smokers (n = 12)): −2.41
- Mean number of recalled elements of the story (elderly volunteers; Non-smokers (n = 12)): 9.8
- Difference in recalls under melatonin and placebo (elderly volunteers; Smokers (n = 4)): 3.5
- Mean number of recalled elements of the story (elderly volunteers; Smokers (n = 4)): 14.8
- improvement in psychomotor skills, MRT ([2]; non-smokers): 0.00062 s
- improvement in psychomotor skills, TRT ([2]; non-smokers): -5.21 ms
- improvement in psychomotor skills, MRT ([2]; smokers): -0.03607 s
- improvement in psychomotor skills, TRT ([2]; smokers): -38.95 ms
- Mean change (in mm) in perceived quality of sleep with melatonin over placebo ([3]; Non smokers (n = 4)): −2.8 mm
- Mean change (in mm) in perceived quality of sleep with melatonin over placebo ([3]; Smokers (n = 10)): 15 mm
